The source of these data is ChEMBL document CHEMBL5385901, “Drug repurposing of propafenone to discover novel anti-tumor agents by impairing homologous recombination to delay DNA damage recovery of rare disease conjunctival melanoma” (Eur J Med Chem, 2023).

Active and inactive are the calls of the source. No cut-off for these calls is given here.

Series [1] is described as follows: Toxicity in immunodeficient NCG mouse xenografted with human CRMM-1 cells assessed as pathomorphological change in kidney at 10 mg/kg, po for 28 days administered five times per week by H and E staining based analysis. Format: organism-based. Particulars: in vivo, 672 h, time 28 day.
Series [2] relates to CRMM-1. Put plainly: Antitumor activity against human CRMM-1 cells xenografted in immunodeficient NCG mouse assessed as mean tumor volume at 10 mg/kg, po for 28 days administered five times per week (reference value: 540 mm3). Format: functional. Conditions: time 28 day.
The nature of series [3]: Toxicity in immunodeficient NCG mouse xenografted with human CRMM-1 cells assessed as pathomorphological change in liver at 10 mg/kg, po for 28 days administered five times per week by H and E staining based analysis. The format is organism-based. Conditions: in vivo, 672 h, time 28 day.
For series [4], the system named is CRMM-1. Put plainly: Antitumor activity against human CRMM-1 cells xenografted in immunodeficient NCG mouse assessed as tumor growth suppression at 10 mg/kg, po for 28 days administered five times per week relative to control. Conditions: time 28 day. The format is functional.
Series [5] can be described thus: Antiproliferative activity against human CM-AS16 cells assessed as cell growth inhibition incubated for 72 hrs by CCK8 assay. The format is functional, cell-based. Particulars: CM-AS16, 72 h.
Series [6] deals with CRMM-1. Put plainly: Inhibition of cell migration in human CRMM-1 cells assessed as migration rate at 0.3 uM measured after 72 hrs by wound healing assay (reference value: 70 %). The format is functional. Set-up: scale not given: the % may be the effect or the level left.
Series [7] concerns CRMM-1. Put plainly: Induction of apoptosis in human CRMM-1 cells at 3 uM measured after 48 hrs by DAPI/Annexin-V-PE staining based flow cytometry relative to control. The format is functional.
Series [8] is described as follows: Antiproliferative activity against human HL7702 cells assessed as cell growth inhibition incubated for 72 hrs by CCK8 assay. Conditions: HL7702 (L02) cells. Format: toxicity, cell-based.
For series [9], the system named is CRMM-2. Briefly: Antiproliferative activity against human CRMM-2 cells assessed as cell growth inhibition incubated for 72 hrs by CCK8 assay. The format is functional, cell-based. Particulars: CRMM-2, 72 h.
Series [10] is described as follows: Antiproliferative activity against human PIG1 cells assessed as cell growth inhibition incubated for 72 hrs by CCK8 assay. Format: toxicity, cell-based.
For series [11], the system named is CRMM-1. Put plainly: Antiproliferative activity against human CRMM-1 cells assessed as cell growth inhibition incubated for 72 hrs by CCK8 assay. The format is functional, cell-based. Particulars: CRMM-1, 72 h.
Series [12] is described as follows: Inhibition of homologous recombination in human CRMM-1 cells at 10 uM incubated for 12 hrs by real-time PCR analysis relative to control. The format is functional.
A short description of series [13]: Antiproliferative activity against human CM2005.1 cells assessed as cell growth inhibition incubated for 72 hrs by CCK8 assay. Particulars: CM2005.1, 72 h. Format: functional, cell-based.
Series [14] deals with T1, Double-strand break repair protein MRE11 (Homo sapiens, UniProt P49959).
T1 sequence (P49959 whole entry): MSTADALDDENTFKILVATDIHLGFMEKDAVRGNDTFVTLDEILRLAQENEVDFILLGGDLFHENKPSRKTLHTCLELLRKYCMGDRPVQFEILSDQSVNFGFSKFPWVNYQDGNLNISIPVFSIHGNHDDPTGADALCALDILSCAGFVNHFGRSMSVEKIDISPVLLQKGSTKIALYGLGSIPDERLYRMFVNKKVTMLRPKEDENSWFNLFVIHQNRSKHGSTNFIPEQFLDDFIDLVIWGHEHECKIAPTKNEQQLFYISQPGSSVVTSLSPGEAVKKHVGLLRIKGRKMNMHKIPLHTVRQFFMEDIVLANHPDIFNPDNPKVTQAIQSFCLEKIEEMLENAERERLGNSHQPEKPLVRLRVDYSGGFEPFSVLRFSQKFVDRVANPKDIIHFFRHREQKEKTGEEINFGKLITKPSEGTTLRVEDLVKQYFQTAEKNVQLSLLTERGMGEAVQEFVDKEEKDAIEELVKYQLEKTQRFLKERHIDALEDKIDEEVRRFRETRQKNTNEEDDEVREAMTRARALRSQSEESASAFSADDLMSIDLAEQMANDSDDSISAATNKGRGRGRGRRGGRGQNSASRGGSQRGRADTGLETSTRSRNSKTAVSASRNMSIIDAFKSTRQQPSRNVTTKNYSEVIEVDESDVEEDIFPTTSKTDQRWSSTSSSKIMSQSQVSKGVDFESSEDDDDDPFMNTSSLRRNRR
Briefly: Binding affinity to his-tagged recombinant human MRE11 assessed as dissociation constant by MST assay.

In series [15] the test system is CRMM-2. Briefly: Induction of DNA damage in human CRMM-2 cells assessed as decrease in RAD51 level upto 10 uM measured after 48 hrs by immunoblot analysis. Format: functional, cell-based.
Series [16] deals with CRMM-1. Put plainly: Induction of DNA double strand breaks in human CRMM-1 cells assessed as gamma-H2AX accumulation upto 10 uM by immunoblot analysis. The format is functional, cell-based.
Series [17] has as its system CRMM-2. Put plainly: Induction of DNA damage in human CRMM-2 cells assessed as increase in p53 level upto 10 uM by immunoblot analysis. Format: functional, cell-based.
Series [18] concerns CRMM-1. Briefly: Induction of DNA damage in human CRMM-1 cells assessed as decrease in NBS1 level measured after 48 hrs by immunoblot analysis. The format is functional, cell-based. Conditions: dose <= 10.0 µM.
Series [19] deals with CRMM-2. Put plainly: Induction of DNA double strand breaks in human CRMM-2 cells assessed as gamma-H2AX accumulation upto 10 uM by immunoblot analysis. Format: functional, cell-based.
Series [20] relates to CRMM-2. Briefly: Induction of DNA damage in human CRMM-2 cells assessed as decrease in […] level upto 10 uM measured after 48 hrs by immunoblot analysis. Format: functional, cell-based.
Series [21] has as its system CRMM-1. Put plainly: Induction of apoptosis in human CRMM-1 cells at 0.1 uM measured after 48 hrs by DAPI/Annexin-V-PE staining based flow cytometry. Format: functional, cell-based.
Series [22] concerns CRMM-2. Briefly: Induction of DNA damage in human CRMM-2 cells assessed as decrease in RAD50 level measured after 48 hrs by immunoblot analysis. The format is functional, cell-based. Particulars: dose <= 10.0 µM.
The subject of series [23] is CRMM-1. Briefly: Induction of DNA double strand breaks in human CRMM-1 cells assessed as gamma-H2AX accumulation at 1 uM measured after 24 hrs immunofluorescence based confocal microscopy. The format is functional, cell-based.
In series [24] the test system is CRMM-1. Put plainly: Induction of DNA damage in human CRMM-1 cells assessed as decrease in […] level upto 10 uM measured after 48 hrs by immunoblot analysis. Format: functional, cell-based.
Series [25] has as its system CRMM-1. Briefly: Induction of DNA damage in human CRMM-1 cells assessed as increase in p53 level upto 10 uM by immunoblot analysis. Format: functional, cell-based.
In series [26] the test system is CRMM-1. Put plainly: Induction of apoptosis in human CRMM-1 cells at 0.3 to 3 uM measured after 48 hrs by DAPI/Annexin-V-PE staining based flow cytometry. Conditions: dose 0.3-3 µM. The format is functional, cell-based.
In series [27] the test system is CRMM-1. Put plainly: Induction of DNA damage in human CRMM-1 cells assessed as decrease in RAD51 level upto 10 uM measured after 48 hrs by immunoblot analysis. Format: functional, cell-based.
Series [28] relates to CRMM-2. Briefly: Induction of DNA double strand breaks in human CRMM-2 cells assessed as gamma-H2AX accumulation at 1 uM measured after 24 hrs immunofluorescence based confocal microscopy. The format is functional, cell-based.
Series [29] deals with CRMM-2. Briefly: Induction of DNA damage in human CRMM-2 cells assessed as decrease in MRE11 level measured after 48 hrs by immunoblot analysis. The format is functional, cell-based. Conditions: dose <= 10.0 µM.
For series [30], the system named is CRMM-1. Briefly: Induction of DNA damage in human CRMM-1 cells assessed as decrease in MRE11 level measured after 48 hrs by immunoblot analysis. Format: functional, cell-based. Conditions: dose <= 10.0 µM.
In series [31] the target is T2, Double-strand break repair protein MRE11 (Homo sapiens) (UniProt P49959).
T2 sequence (whole entry): T1 sequence (P49959 whole entry)
Briefly: Inhibition of his-tagged human MRE11 endonuclease activity using phage X174 circular ssDNA as substrate at 10 to 300 uM incubated for 30 mins by chemiluminescence based analysis. Conditions: dose 10-300 µM.

Series [32] relates to CRMM-2. Briefly: Induction of DNA damage in human CRMM-2 cells assessed as decrease in NBS1 level measured after 48 hrs by immunoblot analysis. Format: functional, cell-based. Conditions: dose <= 10.0 µM.
Series [33] concerns CRMM-1. Briefly: Induction of DNA damage in human CRMM-1 cells assessed as decrease in RAD50 level measured after 48 hrs by immunoblot analysis. Conditions: dose <= 10.0 µM. The format is functional, cell-based.

For the compound `Cn1cnc2c(F)c(Nc3ccc(Br)cc3F)c(C(=O)NOCCO)cc21` [BINIMETINIB], the Activity result in series [1] was “Non-Toxic”; in the series on CRMM-1 [2], 270 mm3; in series [3], “Non-Toxic”; in the series with CRMM-1 [4], 41%.
In the case of `O=C(CCCc1ccccc1)c1c(OCCCN2CCNCC2)ccc2ccccc12` [listing 1 of 2 here], the IC50 in series [5] is 2900 nM; in the series with CRMM-2 [9] it was 700 nM; with CRMM-1 [11], 1300 nM; in series [13] it was 1000 nM. Also, the Activity was 45% in the series with CRMM-1 [6] and 80% in the series with CRMM-1 [7]. For the same compound, the results for the IC50 at 72 h in series [8] and in series [10] were 25600 nM and 32900 nM, respectively. In series [12], the inhibition at 10 µM was 89.5%. The equilibrium dissociation constant (Kd) in [14] was 4300 nM.
`O=C(CCCc1ccccc1)c1c(OCCCN2CCNCC2)ccc2ccccc12` [listing 2 of 2 here]: the outcome in the series with CRMM-2 [15], with CRMM-1 [16], in the series with CRMM-2 [17], in the series on CRMM-2 [19], in the series with CRMM-2 [20] and in the series with CRMM-1 [23] was Active. Besides, the outcome in the series with CRMM-1 [24], in the series on CRMM-1 [25], in the series on CRMM-1 [26], in the series with CRMM-1 [27] and with CRMM-2 [28] was Active. The Activity entry in the series on CRMM-1 [18], in the series on CRMM-2 [22], in the series on CRMM-2 [29], in the series on CRMM-1 [30], in the series with CRMM-2 [32] and in the series on CRMM-1 [33] was “Dose-Dependent Effect” each time. Moreover, the result in the series with CRMM-1 [21] was inactive. Also, in series [31], the inhibition entry was “Active”.
